Measurements reported in a melting point compilation (Tetko et al.; mined from patent text by program, amines drawn as free bases though some values may be those of a salt).

Row | melting point [°C] | SMILES
1 | > 300 | Nc1ccccc1-c1cc2[nH]c3ccccc3c2c2c1C(=O)NC2=O
2 | > 270 | CCCn1c(=O)nc(NNC(C)=O)c2[nH]c(C3CCCC3)nc21
3 | 239 to 246 | CCNc1ccc2c(c1)N1CCN=C1S2
4 | 265 to 267 | O=C1CCC(N2Cc3cc(CNC(=O)NC4CCCCC4)ccc3C2=O)C(=O)N1 (stereo not drawn)
5 | 128 to 130 | Cc1c(O)cccc1C(=O)N[C@@H](Cc1ccccc1)[C@H](O)C(=O)N1CSC(C)(C)[C@H]1C(=O)N[C@@H]1CCc2ccccc21
6 | 124 to 132 | CCN(CCc1coc2c(OC)cccc12)C1COc2c(F)ccc(C(N)=O)c2C1 (stereo not drawn)
7 | 191 to 192 | CCCSc1sc(C(=O)OCC)c2c1C(=O)C(NC(=O)CC)CC2 (stereo not drawn)
8 | 71 to 73 | CCCCCCCCCCCCCCC(F)CC(NC(C)=O)(C(=O)OCC)C(=O)OCC (stereo not drawn)
9 | 205 to 206 | CC(=O)N1Cc2cccc3[nH]cc(c23)C1
10 | 174 | CCc1ccc(CCC(=O)O)c(C(=O)O)c1
11 | 145 to 148 | Clc1ccccc1-c1cnc2nncn2n1
12 | 70 to 72 | CC1(c2ccc(F)cc2)OC(C=Cc2ccccn2)=CC1=O (stereo not drawn)
13 | 173 to 175 | CCCc1nc2cncc(C)c2[nH]1
14 | 194 to 195 | CON=C(C(=O)O)c1cccc(NC(=O)C(F)(F)F)n1
15 | 201 to 205 | Cc1ccc([N+](=O)[O-])cc1N(C)c1nnn[nH]1
16 | 111 | CCC(CC)N(O)C(=O)Nc1cccc(Oc2ccccc2)c1
17 | 85 to 87 | CC[C@H](C)OC(=O)COc1ccc(C(=O)[C@H](COC(C)(C)C)NC(=O)c2ccc(C(=N)NC(=O)OC(C)(C)C)cc2)cc1
18 | 128 to 133 | CCCCN(CCCC)c1nc(Nc2cccc3c2C(=O)c2ccccc2C3=O)nc(N(CCCC)CCCC)n1
19 | 115 | O=c1[nH]c2ccccc2n1CCOC1CCCCO1 (stereo not drawn)
20 | 73 to 75 | CCCCc1c(Cl)nc(O)nc1Cl
21 | 172 to 176 | C=C1C(=O)OC2C1CCC(CO)=CCCC1(C)OC21 (stereo not drawn)
22 | 164 to 166 | CN(Cc1ccccc1S(=O)c1nc2ccccc2[nH]1)c1ccccc1 (stereo not drawn)
23 | 129 to 130 | Oc1cccc(CCc2nc3ccccc3s2)c1
24 | 232 to 233 | CC1(C)Oc2ccc(C#N)cc2C(Oc2ccc(O)nn2)C1O (stereo not drawn)
25 | 185 to 188 | COc1ccc(-c2ccccn2)c(NC(=O)CC(C)N)c1 (stereo not drawn)

Row | melting point [°C] | SMILES
26 | 55 to 57 | COc1ccc2c(c1)CC(Nc1ccc(OCc3ccccc3)cc1)C2 (stereo not drawn)
27 | 114 to 116 | CC(C)CC(NC(=O)c1ccc(NCc2c[nH]cn2)cc1-c1ccccc1)C(=O)O (stereo not drawn)
28 | 95 to 100 | CCOP(=O)(CCN1CCC(N(C)S(=O)(=O)c2ccc(Nc3nccc(Nc4ccc(F)cc4)n3)cc2)CC1)OCC
29 | 58 to 60 | COCCC1CCCCc2c1oc(=O)c(C(c1ccccc1)C1CC1)c2O (stereo not drawn)
30 | 189 to 201 | CCOC1(C(Cl)(Cl)Cl)NC(=O)C(=O)N1
31 | 72 to 80 | COC(=O)c1ccc2c(c1)C(CNC(=O)OC(C)(C)C)CCC2 (stereo not drawn)
32 | 253 to 255 | O=C(O)C=Cc1ccc(CCNC(=O)c2ccc(Cl)cc2)cc1
33 | 201 to 202 | CC(=CC(=O)O)Sc1c[nH]c2ccccc12
34 | 105 to 107 | O=C(CBr)c1ccc(OCC(=O)N2CCOCC2)cc1
35 | 89 to 93 | COc1cc(OC)nc(C(C)(C#N)c2cccc(Cl)c2)n1 (stereo not drawn)
36 | 154 | CCC1=NNC(C)=C(C(=O)OCc2ccccc2)C1c1cccc([N+](=O)[O-])c1 (stereo not drawn)
37 | 210 to 212 | COC(=O)Cn1c(C(=O)NC(N)=S)c(C)c2cc(C)ccc21
38 | 191 to 193 | O=C(Cc1ccc(Cl)c(Cl)c1)NCc1ccc2c(c1)CN(C1CCC(=O)NC1=O)C2=O (stereo not drawn)
39 | 253 to 255 | CCCCNc1nc(-c2ccc(=O)n(C)n2)c(-c2ccccc2)nc1N
40 | 220 | CCc1c(C)[nH]c(=O)c(I)c1Oc1cc(I)cc(CC#N)c1
41 | 260 to 261 | COC(=O)c1ccc(C(=O)NCCCCNC(=O)c2ccc(C(=O)OC)cc2)cc1
42 | 113 to 114 | CC(C)(C)c1ccc(CN2C(=O)N(c3ccccc3)CSC2=NCC(F)(F)F)cc1
43 | 103 to 105 | OC1CCc2cc(Cl)c(Cl)cc2C1 (stereo not drawn)
44 | 210 | Cc1[nH]c(/C=C2\C(=O)Nc3ccc(F)cc32)c(C)c1C(=O)NCCCCCC(=O)NO
45 | 209 to 211 | C#CCOc1cc(-n2nc3ccc(Cl)cn3c2=O)c(F)cc1C#N
46 | > 250 | Cn1[nH]c(=O)n(-c2cc(F)c(C(=O)Cl)cc2F)c1=O
47 | 110 to 112 | CC(C)C(=O)NS(=O)(=O)c1cccc(N)c1
48 | 263 to 265 | FC(F)(F)c1ccc2nc(N3CCN(c4c(Cl)cccc4Cl)CC3)[nH]c2c1
49 | 99 to 100 | NS(=O)(=O)NC[C@H]1COc2cc(Cl)ccc2O1
50 | 185 to 187 | Cc1nc(N2CCN(Cc3csc4ccc(Cl)cc34)C2=O)sc1C(=O)NCc1cccnc1

Row | melting point [°C] | SMILES
51 | 79 | CC(=O)Nc1ccc(C(=O)NC(=O)N2CCC(Oc3ccc(Cl)cc3)CC2)cc1
52 | 85 to 86.5 | COc1ccc(S(C)(=O)=O)cn1
53 | 128 to 129 | CC(C)Cc1nc2ccc(C(N)=O)cc2c(-c2ccccc2)c1CN
54 | 174 to 176 | CN(C)C1CCN(CCc2ccc(-c3cccc(N)n3)cc2)CC1
55 | 145 to 146 | CC(C(=O)O)c1cc(CC(=O)O)c(-c2ccccc2)s1 (stereo not drawn)
56 | 181 to 183 | COc1ccc(-c2coc3cc(OCc4ccccc4)ccc3c2=O)cc1
57 | 176 to 178 | CCCC(=O)c1c[nH]c2c(F)cccc2c1=O
58 | 179 to 181 | O=[N+]([O-])c1ccc(Oc2cc3ccccc3cc2Oc2ccc([N+](=O)[O-])c(O)c2)cc1O
59 | 113 to 116 | O=C(Nc1ccc(-n2nc(C(F)(F)F)cc2C(F)(F)F)cc1)C1CCCO1 (stereo not drawn)
60 | 151 to 152 | CS(=O)(=O)c1ccc(-c2c(-c3ccc(F)cc3)c(OCC(=O)c3ccccc3)nn2CC(=O)c2ccccc2)cc1
61 | 148 to 149 | CC(Oc1ccc(CNc2ccc(Cl)cc2)cc1)C(=O)O (stereo not drawn)
62 | 289 to 290 | CCOc1ccccc1-c1ncc(-c2nnn[nH]2)c(=O)[nH]1
63 | 116 to 120 | CCOC(=O)c1c(C(F)(F)F)oc2ccc(C(F)(F)F)cc2c1=O
64 | 79 to 80 | COC(=O)COc1ccc(SCc2cc(-c3ccc(Cl)cc3)on2)cc1C
65 | 313 to 315 | O=c1c(-c2nnn[nH]2)cnc2c(Cl)cccn12
66 | 216 to 217 | CC(=O)Nc1ccc([N+](=O)[O-])c2c(Br)ccc(C)c12
67 | 90 | CC(C)(C1OCCO1)C(O)(Cn1cncn1)c1ccc(F)cc1 (stereo not drawn)
68 | 211 to 212 | Cc1cc(N2N=CCNC2=O)cc(Cl)c1C(C#N)c1ccc(Cl)nc1 (stereo not drawn)
69 | 153 to 157 | CCOC(=O)c1c(O)n(CC)c2cc(-c3ccncc3)ccc2c1=O
70 | 210 | O=C(N[C@H]1CC[C@H](CCN2CCN(c3nccc4c3CCO4)CC2)CC1)c1ccc(F)cc1
71 | 278 to 279 | Cc1c(C(=O)O)cnn1-c1nc(-c2ccc(Cl)c(Cl)c2)cs1
72 | 59 to 60 | O=C(O)C(Cl)(Cl)CCCCCCCCCCCCBr
73 | 159 | Cn1cncc1C(N)(c1ccc(Cl)cc1)c1ccc2c(c1)c(-c1cccc(Cl)c1)nc1nnnn12 (stereo not drawn)
74 | 63 to 65 | C#CCN1CCN(C(C)=O)CC1
75 | 104 to 106 | COC(=O)c1ccc2oc(Cl)nc2c1

Row | melting point [°C] | SMILES
76 | 197 | CCOC(=O)C1(C(=O)N(C)c2cccc3cc(-c4nccs4)[nH]c23)CCC1
77 | 184 to 186 | Fc1ccc(-n2cc(C3CCN(CCN4CCNC4=S)CC3)c3ccc(Cl)cc32)cc1
78 | 153 to 155 | Cc1cccc(NCC2=NCCN2C(=O)Nc2ccc(Cl)cc2)c1C
79 | 69 to 71 | COc1ccc(CS[C@@H]2C[C@@H](CSCc3ccccc3)N(S(C)(=O)=O)C2)cc1
80 | 244 to 246 | CCC(=O)Oc1ccc(-c2nc(-c3ccc(N(C)C)cc3)c(C)[nH]2)cc1OC
81 | 244 | O=C(N[C@H]1CC[C@H](CCN2CCN(c3nccc4c3CCO4)CC2)CC1)c1ccc2c(c1)OCO2
82 | 204 | O=[N+]([O-])c1ccc(Sc2ccc(O)c(Cl)c2Cl)cc1
83 | 129 to 130 | CCOC(=NC(=O)Nc1ccc(OC(F)(F)F)cc1)N1Cc2ccccc2-c2ccccc2C1
84 | 188 to 190 | COC(=O)c1cn2c(n1)COc1c(OC)cccc1-2
85 | 252 to 254 | O=C(NCCc1nc(-c2ccncn2)cc(=O)[nH]1)OCc1ccccc1
86 | 90 to 92 | Cc1nnc(Cl)c(-c2c(F)cc(F)cc2F)c1-c1cccs1
87 | 65 to 67 | CCC(=O)c1nc(C)c(C)nc1C
88 | 245 to 247 | N[C@@H]1CN(c2c(F)cc3c(=O)c(C(=O)O)cn(C4CC4)c3c2F)C[C@@H]1n1ccnn1 (relative stereo)
89 | 177 to 180 | N#Cc1c(Cl)[nH]c2ccccc12
90 | 120 to 121 | CCOC(=O)c1ccc(CNC(=O)CCl)cc1O
91 | 80 to 82 | CCC(C(=O)N(CC)CC)n1cc(C)c(-c2ccccc2)n1 (stereo not drawn)
92 | 182 | CC(=O)Nc1cc(Cl)cc(Cl)c1
93 | 202 to 204 | NC(=O)c1sc2cncc(Oc3ccc(Cl)cc3)c2c1N
94 | 62 to 63.2 | C=C(C)C(=O)OCCCc1ccc2c(c1)N(C(C)(C)C)N(O)N2
95 | 248 to 250 | Cc1nn(-c2cc3nc(S)sc3cc2F)c(=O)n1C(F)F
96 | 64 to 69 | O=C(O)CSc1nc(Cl)cc(NCc2ccc(Cl)c(Cl)c2)n1
97 | 123 to 125 | CC(C)CCCOc1c(-c2ccc(S(C)(=O)=O)cc2)cnn(-c2ccc(F)cc2)c1=O
98 | 66 to 67 | O=C(CCc1nc(-c2ccc(Cl)cc2)co1)OCc1ccccc1
99 | 265 to 266 | Cc1nc2c(O)c(CC[C@@H](O)c3ccccc3)c(C(=O)N3CCC3)cc2n1C

Row | SMILES | melting point [°C]
100 | Nc1cc(OCc2cccc(I)c2)c(C(=O)NC2CN3CCC2CC3)cc1Cl (stereo not drawn) | 102 to 104
101 | CC(NC(=O)Cc1cc(F)cc(F)c1)C(=O)C1(N)N=C(c2ccccc2)c2cc(Cl)ccc2N(C)C1=O (stereo not drawn) | 126 to 130
102 | COc1ccc(NC(=O)c2nnn(Cc3ccc(F)cc3)c2C)cc1OC | 120
103 | N=C(N)c1cccc(Cc2c[nH]cn2)c1O | 249
